{
  "source": "patent US5001258A",
  "about": "“Antibiotic, fumifungin, a microbial process for the preparation thereof, and the use thereof as a pharmaceutical” (Hoechst Aktiengesellschaft, priority 1987, dated 1991)",
  "key": {"bacteria": {"system": "bacteria", "assay": "bactericidal properties", "format": "cell-based"}, "Saccharomyces cerevisiae": {"system": "Saccharomyces cerevisiae", "assay": "MIC of fumifungin, growth inhibition of Saccharomyces cerevisiae", "format": "cell-based"}, "Cladosporium resinae": {"system": "Cladosporium resinae", "assay": "MIC of fumifungin, growth inhibition of Cladosporium resinae", "format": "cell-based", "conditions": "Amorphotheca resinae"}, "Aspergillus niger": {"system": "Aspergillus niger", "assay": "MIC of fumifungin, growth inhibition of Aspergillus niger", "format": "cell-based"}, "Cercospora beticola": {"system": "Cercospora beticola", "assay": "MIC of fumifungin, growth inhibition of Cercospora beticola", "format": "cell-based"}, "Alternaria solani": {"system": "Alternaria solani", "assay": "MIC of fumifungin, growth inhibition of Alternaria solani", "format": "cell-based"}, "fungi": {"system": "fungi", "assay": "fungicidal properties", "format": "cell-based"}, "Wild yeast": {"system": "Wild yeast", "assay": "MIC of fumifungin, growth inhibition of Wild yeast", "format": "cell-based"}, "Candida albicans": {"system": "Candida albicans", "assay": "MIC of fumifungin, growth inhibition of Candida albicans", "format": "cell-based"}, "[1]": {"assay": "Solubility (physicochemical properties of fumifungin)", "conditions": "solvents in which soluble"}},
  "data": [
    {"smiles": "CCCCCCC(O)CCCCCCC=CC(O)C(OC(C)=O)C(O)C(N)C(=O)O", "note": "(stereo not shown) [fumifungin, 2-amino-4-acetoxy-3,5,14-tri-hydroxy-Δ^6-eicosenoic acid]", "values": [
      {"measurement": "bactericidal properties", "setting": "bacteria", "result": "bactericidal"},
      {"measurement": "MIC", "setting": "Saccharomyces cerevisiae", "result": 62.5, "unit": "mg/mL"},
      {"measurement": "MIC", "setting": "Cladosporium resinae", "result": "> 0.9", "unit": "mg/mL"},
      {"measurement": "MIC", "setting": "Aspergillus niger", "result": "> 7.8", "unit": "mg/mL"},
      {"measurement": "MIC", "setting": "Cercospora beticola", "result": 0.9, "unit": "mg/mL"},
      {"measurement": "MIC", "setting": "Alternaria solani", "result": 31.2, "unit": "mg/mL"},
      {"measurement": "fungicidal properties", "setting": "fungi", "result": "fungicidal"},
      {"measurement": "MIC", "setting": "Wild yeast", "result": 62.5, "unit": "mg/mL"},
      {"measurement": "MIC", "setting": "Candida albicans", "result": 62.5, "unit": "mg/mL"},
      {"measurement": "Solubility", "setting": "[1]", "result": "methanol, DMSO"}
    ]}
  ]
}
